In patent US7872045B2, “Combination therapy for glaucoma treatment” (Allergan, Inc., priority 2001, dated 2011):
pIC50: −log10 of the molar value.

How the values were obtained:
[1] = target: T1, human EP2 receptor (hEP2) (Homo sapiens, UniProt P43116); assay: Radioligand binding competition vs [3H]PGE2, human recombinant EP2 receptor; conditions: [3H]PGE2 competition, plasma membranes of HEK-293 stable transfectants, 60 min 25° C.
T1 construct: expressed in transfected cells; plasma membrane fraction
Method: (§1) Human Recombinant EP1, EP2, EP4, and FP Receptors: Stable Transfectants
(§2) HEK-293 cells stably expressing the human or feline FP receptor, or EP1, EP2, EP3, or EP4 receptors were washed with TME buffer, scraped from the bottom of the flasks, and homogenized for 30 sec using a Brinkman PT 10/35 polytron. TME buffer was added to achieve a final 40 ml volume in the centrifuge tubes (the composition of TME is […]; ION HCl is added to achieve a pH of 7.4).
(§3) The cell homogenate was centrifuged at 19000 r.p.m. for 20 min at 4° C. using a Beckman Ti-60 rotor. The resultant pellet was resuspended in TME buffer to give a final 1 mg/ml protein concentration, as determined by Biorad assay. Radioligand binding competition assays vs. [^3H-]17 -phenyl PGF2α (5 nM) were performed in a 100 μl volume for 60 min. Binding reactions were started by adding plasma membrane fraction. The reaction was terminated by the addition of 4 ml ice-cold TRIS-HCl buffer and rapid filtration through glass fiber GF/B filters using a Brandel cell harvester. The filters were washed 3 times with ice-cold buffer and oven dried for one hour. Non-specific binding was determined with 10 uM unlabeled 17 -phenyl PGF2α.
(§4) [^3H-] PGE2 (5 nM; specific activity 180 Ci mmol) was used as the radioligand for EP receptors. Binding studies employing EP1, EP2, EP3, EP4 were performed in duplicate in at least three separate experiments. A 200 μl assay volume was used. Incubations were for 60 min at 25° C. and were terminated by the addition of 4 ml of ice-cold 50 mM TRIS-HCl, followed by rapid filtration through Whatman GF/B filters and three additional 4 ml washes in a cell harvester (Brandel). Non-specific binding determined with 10^−5M of unlabeled PGE2,.
(§5) Plasmids encoding the human EP1, EP2, EP4, and FP receptors were prepared by cloning the respective coding sequences into the eukaryotic expression vector pCEP4 (Invitrogen). The pCEP4 vector contains an Epstein Barr virus (EBV) origin of replication, which permits episomal replication in primate cell lines expressing EBV nuclear antigen (EBNA-1). Similarly, competitive experiments were caried out using [3H]17-phenylPGF2α at 5 nM in the presence of test ligands at various concentrations. Also non-specific binding was, determined in the presence of excess unlabeled PGF2α (10^−5 M).
(§6) It also contains a hygromycin resistance gene that is used for eukaryotic selection. The cells employed for stable transfection were human embryonic kidney cells (HEK-293) that were transfected with and express the EBNA-1 protein. These HEK-293-EBNA cells (Invitrogen) were grown in medium containing Geneticin (G418) to maintain expression of the EBNA-1 protein. HEK-293 cells were grown in DMEM with 10% fetal bovine serum (FBS), 250 μg ml G418 (Life Technologies) and 200 μg ml^−1 gentamicin or penicillin/streptomycin.
(§7) For transfection, the cells were grown to 50-60% confluency on 10 cm plates. The plasmid pCEP4 incorporating cDNA inserts for the respective human prostanoid receptor (20 μg) was added to 500 μl of 250 mM CaCl2. HEPES buffered saline ×2 (2×HBS, 280 mM NaCl, 20 mM HEPES acid, 1.5 mM Na2 HPO4, pH 7.05-7.12) was then added dropwise to a total of […], with continuous vortexing at room temperature. After 30 min, 9 ml DMEM were added to the mixture. The DNA/DMEM/calcium phosphate mixture was then added to the cells, which had been previously rinsed with 10 ml PBS. The cells were then incubated for 5 hr at 37° C. in humidified 95% air/5% CO2. The calcium phosphate solution was then removed and the cells were treated with 10% glycerol in DMEM for 2 min. The glycerol solution was then replaced by DMEM with 10% FBS. The cells were incubated overnight and the medium was replaced by DMEM/10% FBS containing 250 μg ml^−1 G418 and penicillin/streptomycin. The following day hygromycin B was added to a final concentration of 200 μg ml^−1. […]

[2] = target: T2, human EP4 receptor (hEP4) (Homo sapiens, UniProt P35408); assay: Radioligand binding competition vs [3H]PGE2, human recombinant EP4 receptor; conditions: [3H]PGE2 competition, plasma membranes of HEK-293 stable transfectants, 60 min 25° C.
T2 construct: expressed in transfected cells; plasma membrane fraction
Method: as §1, §2, §3, §4, §5, §6, §7

[3] = target: T3, human EP3 receptor (hEP3, D isoform) (Homo sapiens, UniProt P43115); assay: Radioligand binding competition vs [3H]PGE2, human recombinant EP3 receptor; conditions: [3H]PGE2 competition, plasma membranes of transfected cells (COS-7 transient; HEK-293 also named), 60 min 25° C.
T3 construct: expressed in transfected cells; host or cells: COS-7 cells, transient transfection with pcDNA3 (lipofectin); plasma membrane fraction
T3 sequence (P43115 1-374 isoform P43115-4): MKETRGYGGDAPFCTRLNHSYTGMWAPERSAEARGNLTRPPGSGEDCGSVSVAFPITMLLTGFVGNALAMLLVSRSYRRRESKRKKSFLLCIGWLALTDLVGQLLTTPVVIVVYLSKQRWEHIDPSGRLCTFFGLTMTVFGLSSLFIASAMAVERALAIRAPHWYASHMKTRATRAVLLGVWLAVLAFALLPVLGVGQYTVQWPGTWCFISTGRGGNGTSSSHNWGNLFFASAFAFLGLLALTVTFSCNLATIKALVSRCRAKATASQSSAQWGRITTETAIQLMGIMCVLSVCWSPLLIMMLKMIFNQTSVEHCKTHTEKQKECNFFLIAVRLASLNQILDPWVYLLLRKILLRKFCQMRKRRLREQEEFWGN
Method: as §2, §4
Human Recombinant EP3 and TP Receptors: Transient Transfectants.
Plasmids encoding the human EP3 (D isoform) or TP receptor were prepared by cloning the respective coding sequences into a pcDNA3 vector (Invitrogen). COS-7 cells were transfected with pcDNA3 containing cDNA encoding the EP3 or TP receptor by employing the lipofectin method, according to the manufacturers instructions (Gibco). For radioligand binding studies, cells were harvested two days after transfection.
Radioligand binding studies on plasma membrane fractions prepared from cells were performed as follows. Cells washed with TME buffer were scraped from the bottom of the plates and homogenized for 30 sec using a Brinkman PT 10/35 polytron. TME buffer was added as necessary to achieve a 40 ml volume in the centrifuge tubes. TME is comprised of 50 mM TRIS base, 10 mM MgCl2, 1 mM EDTA; pH 7.4 is achieved by adding 1 N HCl. The cell homogenate was centrifuged at 19,000 rpm for 20-25 min at 4° C. using a Beckman Ti-60 or T ? -70 rotor. The pellet was then resuspended in TME buffer to provide a final protein concentration of 1 mg/ml, as determined by Bio-Rad assay. Radioligand binding assays were performed in a 100 μl or 200 μl volume.
The binding of [^3H] PGE2 (specific activity 165 Ci/mmol) was determined in duplicate and, in at least 3 separate experiments. Incubations were for 60 min at 25° C. and were terminated by the addition of 4 ml of ice-cold 50 mM TRIS-HCl followed by rapid filtration through Whatman GF/B filters and three additional 4 ml washes in a cell harvester (Brandel). Competition studies were performed using a final concentration of 2.5 or 5 nM [H] PGE2 and non-specific binding was determined with 10^−5 M unlabelled PGE2.

T1 sequence (P43116 whole entry): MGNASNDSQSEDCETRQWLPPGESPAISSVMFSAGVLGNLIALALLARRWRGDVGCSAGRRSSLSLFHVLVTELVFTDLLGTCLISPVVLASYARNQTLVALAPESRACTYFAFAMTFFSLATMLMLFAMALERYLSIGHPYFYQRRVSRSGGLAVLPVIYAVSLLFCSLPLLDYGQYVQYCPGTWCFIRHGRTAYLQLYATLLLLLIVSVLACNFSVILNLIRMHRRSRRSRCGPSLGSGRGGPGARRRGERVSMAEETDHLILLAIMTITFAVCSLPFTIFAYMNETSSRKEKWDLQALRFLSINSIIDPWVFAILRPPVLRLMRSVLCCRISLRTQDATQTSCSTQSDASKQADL
T2 sequence (P35408 whole entry): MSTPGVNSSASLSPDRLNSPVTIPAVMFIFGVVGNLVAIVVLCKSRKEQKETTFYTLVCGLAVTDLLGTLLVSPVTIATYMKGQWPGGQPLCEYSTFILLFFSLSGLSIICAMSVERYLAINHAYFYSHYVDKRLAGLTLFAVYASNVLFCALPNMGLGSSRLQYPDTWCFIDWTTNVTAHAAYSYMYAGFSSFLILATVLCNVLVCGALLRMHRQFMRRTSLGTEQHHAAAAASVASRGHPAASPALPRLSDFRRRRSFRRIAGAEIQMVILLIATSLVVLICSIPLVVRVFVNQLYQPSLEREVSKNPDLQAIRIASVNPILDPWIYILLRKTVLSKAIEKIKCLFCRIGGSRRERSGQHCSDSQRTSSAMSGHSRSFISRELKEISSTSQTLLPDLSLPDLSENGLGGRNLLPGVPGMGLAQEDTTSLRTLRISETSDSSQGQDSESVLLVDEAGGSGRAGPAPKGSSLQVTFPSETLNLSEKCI

SMILES	pIC50 [1]	pIC50 [2]	pIC50 [3]
O=C(O)CSCCCS[C@H]1C(=O)C[C@@H](O)[C@@H]1/C=C/C(O)CCc1ccc2ccccc2c1 (single isomer, unassigned) [Example 10H]	< 5.00	6.35	< 5.00
O=C(O)CSCCCS[C@H]1C(=O)C[C@@H](O)[C@@H]1/C=C/C(O)CCc1ccc2ccccc2c1 (single isomer, unassigned) [Example 10L]	< 5.00	7.71	5.08
O=C(O)CSCCCS[C@H]1C(=O)C[C@@H](O)[C@@H]1/C=C/C(O)Cc1ccc2ccccc2c1 (single isomer, unassigned) [Example 22L]	< 5.00	8.21	< 5.00
COC(=O)CSCCCS[C@H]1C(=O)C[C@@H](O)[C@@H]1/C=C/[C@@H](O)CCc1cc2ccccc2s1 [Example 13L, {3-[(1R,2S,3R)-3-Hydroxy-2-((S)-(E)-3-hydroxy-5-(benzothienyl)pent-1-enyl)-5-oxocyclopentylsulfanyl]propylsulfanyl}acetic acid methyl ester]	< 5.00	7.03	5.14
O=C(O)CSCCCS[C@H]1C(=O)C[C@@H](O)[C@@H]1/C=C/[C@@H](O)CCc1cc2ccccc2s1 [Example 14H, {3-[(1R,2S,3R)-3-Hydroxy-2-((S)-(E)-3-hydroxy-5-(benzothienyl)pent-1-enyl)-5-oxocyclopentylsulfanyl]propylsulfanyl}acetic acid]	< 5.00	7.57	< 5.00
O=C(O)CSCCCS[C@H]1C(=O)C[C@@H](O)[C@@H]1/C=C/[C@@H](O)CCc1cc2ccccc2s1 [Example 14L, {3-[(1R,2S,3R)-3-Hydroxy-2-((S)-(E)-3-hydroxy-5-(benzothienyl)pent-1-enyl)-5-oxocyclopentylsulfanyl]propylsulfanyl}acetic acid]	≤ 5.00	7.89	< 5.00

Other lines, results leading:

pIC50 [1]	pIC50 [2]	pIC50 [3]	SMILES
5.03	7.52	< 5.00	COC(=O)CSCCCS[C@H]1C(=O)C[C@@H](O)[C@@H]1/C=C/C(O)Cc1csc2ccccc12 (single isomer, unassigned) [Example 24L]
< 5.00	7.16		O=C(O)CSCCCS[C@H]1C(=O)C[C@@H](O)[C@@H]1/C=C/C(O)Cc1csc2ccccc12 (single isomer, unassigned) [Example 25H]
5.66	8.30	< 5.00	O=C(O)CSCCCS[C@H]1C(=O)C[C@@H](O)[C@@H]1/C=C/C(O)Cc1csc2ccccc12 (single isomer, unassigned) [Example 25L]
< 5.00	7.49	< 5.00	C[C@@](O)(/C=C/[C@H]1[C@H](O)CC(=O)[C@@H]1SCCCSCC(=O)O)CCc1cc2ccccc2s1 [Example 34H, {3-[(1R,2S,3R)-3-Hydroxy-2-((S)-(E)-3-(hydroxy)-3-(methyl)-5-(benzothienyl)pent-1-enyl)-5-oxocyclopentylsulfanyl]propylsulfanyl}acetic acid]
	7.17	< 5.00	C[C@@](O)(/C=C/[C@H]1[C@H](O)CC(=O)[C@@H]1SCCCSCC(=O)O)CCc1cc2ccccc2s1 [Example 34L, {3-[(1R,2S,3R)-3-Hydroxy-2-((S)-(E)-3-(hydroxy)-3-(methyl)-5-(benzothienyl)pent-1-enyl)-5-oxocyclopentylsulfanyl]propylsulfanyl}acetic acid]
